In the SangsterLogP compilation:

Key:
[1] = method code SF, from PMID: 8453740
[2] = method code SF-W, from PMID: 8453740

logP [1] | SMILES | also measured
4.59 | CCCCCCOc1cccc(-c2cn(C)cc(-c3ccccc3)c2=O)c1 | 
4.43 | CCCCCN(C)C(=O)c1cccc(Oc2ccccc2)c1 | 
1.94 | COc1cccc(-c2cn(C)cc(-c3ccccc3)c2=O)c1 | 
2.98 | CCCOc1cccc(-c2cn(C)cc(-c3ccccc3)c2=O)c1 | 
3.44 | CCCN(C)C(=O)c1cccc(Oc2ccccc2)c1 | 
4.07 | CCCCCOc1cccc(-c2cn(C)cc(-c3ccccc3)c2=O)c1 | 
3.89 | CCCCN(C)C(=O)c1cccc(Oc2ccccc2)c1 | 

More lines, now with the values behind:

SMILES | logP [1] | also measured
CNC1=C(c2cccc(C(F)(F)F)c2)C(=O)C(c2ccccc2)O1 (stereo not drawn) | 3.22 | 
CCCCCCOc1cccc(-c2cn(C)cc(-c3ccc(Cl)cc3)c2=O)c1 |  | logP: 5.23
CNc1cnn(-c2cccc(C(F)(F)F)c2)c(=O)c1Cl |  | logP [2]: 2.52
Cc1ccc(C)c(Oc2cccc(C(=O)NC(C)C)c2)c1 | 4.35 | 
CN(C)C=C1OC(=O)C(C#N)=C1c1ccccc1 | 1.07 | 
CNC(=O)c1cccc(Oc2ccccc2)c1 | 2.86 | 
CCCCCCN(C)C(=O)c1cccc(Oc2ccccc2)c1 |  | logP: 5.01
Cc1ccc(C)c(Oc2cccc(C(=O)NC(C)(C)C)c2)c1 | 4.78 | 
CN(C)C(=O)c1cccc(Oc2ccccc2)c1 | 2.57 | 
CCN(C)C(=O)c1cccc(Oc2ccccc2)c1 | 2.98 | 
CNC(=O)c1cccc(Oc2cc(C)ccc2C)c1 | 3.76 | 
